Like-named read-outs stand apart in the source and are kept apart here.
Assays:
platelet αIIbβ3 [1] = molecular target: T1, platelet αIIbβ3 (Homo sapiens, UniProt P05106+P08514); settings: cited from earlier work
[2] = test system: human ADP-induced platelet aggregation; experiment: ADP-induced platelet aggregation in platelet-rich plasma; format: cell-based; settings: read-out: IC50 ADP-induced platelet aggregation; 5 µM ADP; citrated platelet-rich plasma; n=8
platelet αIIbβ3 [3] = molecular target: T1, platelet αIIbβ3; experiment: Priming platelet αIIbβ3 to bind fibrinogen; format: cell-based
αIIbβ3 [4] = molecular target: T2, αIIbβ3 (Homo sapiens, UniProt P05106+P08514); experiment: Adhesion of HEK293 cells expressing αIIbβ3 to fibrinogen; format: cell-based; settings: for inhibition of binding of cells expressing αIIbβ3 to fibrinogen: HEK293 cells, RUC-2 100 µM, RUC-4 300 µM; for Specificity for αIIbβ3 vs αVβ3: αIIbβ3 cells to fibrinogen vs αVβ3 cells to vitronectin
T2 sequence (P08514 32-887 limits assumed): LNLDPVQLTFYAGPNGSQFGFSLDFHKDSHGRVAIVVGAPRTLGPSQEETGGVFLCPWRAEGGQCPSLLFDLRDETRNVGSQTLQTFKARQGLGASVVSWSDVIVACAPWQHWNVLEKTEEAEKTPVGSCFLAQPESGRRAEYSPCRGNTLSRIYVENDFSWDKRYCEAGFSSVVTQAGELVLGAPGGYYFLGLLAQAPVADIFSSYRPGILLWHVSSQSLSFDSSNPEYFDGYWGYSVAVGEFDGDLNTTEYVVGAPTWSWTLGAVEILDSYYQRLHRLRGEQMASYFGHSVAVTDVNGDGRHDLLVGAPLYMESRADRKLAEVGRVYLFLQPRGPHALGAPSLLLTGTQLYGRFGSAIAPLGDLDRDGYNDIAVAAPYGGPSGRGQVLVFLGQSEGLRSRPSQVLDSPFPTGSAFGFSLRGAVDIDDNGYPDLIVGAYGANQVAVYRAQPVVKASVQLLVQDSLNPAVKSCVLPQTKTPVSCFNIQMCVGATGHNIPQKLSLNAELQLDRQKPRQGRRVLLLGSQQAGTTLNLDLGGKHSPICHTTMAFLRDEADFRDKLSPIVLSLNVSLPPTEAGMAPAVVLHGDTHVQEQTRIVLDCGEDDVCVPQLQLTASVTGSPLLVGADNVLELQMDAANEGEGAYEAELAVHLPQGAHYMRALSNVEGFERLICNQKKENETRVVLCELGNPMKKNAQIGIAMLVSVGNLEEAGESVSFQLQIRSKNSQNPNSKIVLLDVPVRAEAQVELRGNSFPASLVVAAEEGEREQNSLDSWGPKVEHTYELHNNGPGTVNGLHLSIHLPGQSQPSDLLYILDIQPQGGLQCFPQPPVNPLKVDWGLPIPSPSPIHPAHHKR
T2 sequence (P08514 891-1039 partner limits assumed): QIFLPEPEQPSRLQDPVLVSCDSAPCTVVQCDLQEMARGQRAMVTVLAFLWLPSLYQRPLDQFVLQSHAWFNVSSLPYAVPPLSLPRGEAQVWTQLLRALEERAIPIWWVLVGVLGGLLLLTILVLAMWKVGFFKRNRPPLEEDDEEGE
T2 sequence (P05106 27-788): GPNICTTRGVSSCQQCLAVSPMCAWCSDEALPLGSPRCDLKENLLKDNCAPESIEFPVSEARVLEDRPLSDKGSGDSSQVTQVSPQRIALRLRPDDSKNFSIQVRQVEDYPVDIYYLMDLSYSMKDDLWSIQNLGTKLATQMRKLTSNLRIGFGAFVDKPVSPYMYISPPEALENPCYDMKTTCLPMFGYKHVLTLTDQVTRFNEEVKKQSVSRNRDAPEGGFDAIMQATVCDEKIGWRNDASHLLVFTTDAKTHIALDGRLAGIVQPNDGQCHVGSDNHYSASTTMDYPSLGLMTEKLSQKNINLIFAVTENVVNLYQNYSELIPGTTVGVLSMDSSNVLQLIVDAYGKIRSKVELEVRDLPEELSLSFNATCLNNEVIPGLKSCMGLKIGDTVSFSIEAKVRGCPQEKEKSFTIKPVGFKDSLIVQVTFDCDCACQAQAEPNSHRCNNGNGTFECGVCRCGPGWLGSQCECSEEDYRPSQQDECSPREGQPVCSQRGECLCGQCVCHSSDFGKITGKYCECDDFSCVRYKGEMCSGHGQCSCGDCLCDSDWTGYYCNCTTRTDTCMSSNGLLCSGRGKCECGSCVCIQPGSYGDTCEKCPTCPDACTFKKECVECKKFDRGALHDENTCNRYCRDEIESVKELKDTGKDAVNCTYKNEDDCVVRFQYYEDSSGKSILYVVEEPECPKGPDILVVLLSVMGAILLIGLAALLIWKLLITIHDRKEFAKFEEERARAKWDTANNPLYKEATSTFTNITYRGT

hαIIb/mβ3 mice = experiment: FeCl3 murine carotid artery thrombosis model; format: in vivo; settings: for platelet counts: hαIIb/mβ3 mice
[5] = test system: human ADP-induced platelet aggregation; settings: cited from earlier work
murine αIIbβ3 [6] = molecular target: T3, murine αIIbβ3 (Mus musculus, UniProt O54890+Q9QUM0); settings: 1 µM; cited from earlier work
T3 sequence (Q9QUM0 32-1033): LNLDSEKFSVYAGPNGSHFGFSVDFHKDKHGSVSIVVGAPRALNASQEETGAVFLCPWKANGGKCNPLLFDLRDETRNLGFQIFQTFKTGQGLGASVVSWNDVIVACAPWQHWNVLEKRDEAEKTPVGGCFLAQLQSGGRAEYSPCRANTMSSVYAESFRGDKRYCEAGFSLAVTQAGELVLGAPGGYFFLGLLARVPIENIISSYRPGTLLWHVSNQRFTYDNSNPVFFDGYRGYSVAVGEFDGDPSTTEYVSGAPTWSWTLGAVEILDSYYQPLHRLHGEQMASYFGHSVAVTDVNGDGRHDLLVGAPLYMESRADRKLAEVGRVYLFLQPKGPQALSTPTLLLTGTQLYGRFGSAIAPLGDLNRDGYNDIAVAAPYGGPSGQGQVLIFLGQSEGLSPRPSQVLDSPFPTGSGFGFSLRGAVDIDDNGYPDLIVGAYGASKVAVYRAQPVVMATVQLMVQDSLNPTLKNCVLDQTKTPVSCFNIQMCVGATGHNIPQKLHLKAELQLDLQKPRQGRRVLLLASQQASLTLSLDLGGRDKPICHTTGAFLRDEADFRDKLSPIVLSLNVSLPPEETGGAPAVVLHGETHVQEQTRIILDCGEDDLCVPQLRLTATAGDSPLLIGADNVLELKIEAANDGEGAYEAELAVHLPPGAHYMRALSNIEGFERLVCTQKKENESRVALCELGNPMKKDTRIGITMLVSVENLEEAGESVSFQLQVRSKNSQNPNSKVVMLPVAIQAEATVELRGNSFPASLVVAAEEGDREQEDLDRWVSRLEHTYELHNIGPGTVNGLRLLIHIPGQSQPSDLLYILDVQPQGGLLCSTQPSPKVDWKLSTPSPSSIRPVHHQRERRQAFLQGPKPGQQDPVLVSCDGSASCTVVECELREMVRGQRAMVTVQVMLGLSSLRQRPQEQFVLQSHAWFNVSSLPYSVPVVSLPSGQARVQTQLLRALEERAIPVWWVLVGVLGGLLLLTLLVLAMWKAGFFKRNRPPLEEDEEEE
T3 sequence (O54890 26-787): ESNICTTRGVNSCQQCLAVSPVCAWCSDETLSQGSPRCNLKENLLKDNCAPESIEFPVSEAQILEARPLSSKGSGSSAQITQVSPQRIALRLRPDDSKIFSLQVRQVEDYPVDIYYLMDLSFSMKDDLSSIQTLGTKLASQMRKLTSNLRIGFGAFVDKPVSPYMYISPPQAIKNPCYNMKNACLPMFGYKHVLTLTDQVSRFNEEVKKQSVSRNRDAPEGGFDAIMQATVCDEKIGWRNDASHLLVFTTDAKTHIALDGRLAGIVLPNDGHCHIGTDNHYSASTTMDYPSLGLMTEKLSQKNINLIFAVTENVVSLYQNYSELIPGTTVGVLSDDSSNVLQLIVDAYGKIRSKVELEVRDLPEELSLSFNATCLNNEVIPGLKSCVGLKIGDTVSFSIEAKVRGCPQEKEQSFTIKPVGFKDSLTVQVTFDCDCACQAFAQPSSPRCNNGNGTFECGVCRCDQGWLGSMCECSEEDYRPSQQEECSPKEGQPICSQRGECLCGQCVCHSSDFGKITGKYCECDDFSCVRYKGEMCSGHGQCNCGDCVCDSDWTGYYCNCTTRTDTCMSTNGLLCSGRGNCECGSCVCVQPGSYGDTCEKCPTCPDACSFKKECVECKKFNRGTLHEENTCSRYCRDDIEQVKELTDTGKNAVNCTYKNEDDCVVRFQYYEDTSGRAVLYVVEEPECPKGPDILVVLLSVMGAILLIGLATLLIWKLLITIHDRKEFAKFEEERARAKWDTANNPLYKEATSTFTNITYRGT

αVβ3 = αVβ3 (Homo sapiens, UniProt P05106+P06756); experiment: Adhesion of HEK293 cells expressing αVβ3 to vitronectin; format: cell-based; settings: RUC-2 100 µM, RUC-4 300 µM
Sequence of αVβ3 (P06756 31-889 limits assumed): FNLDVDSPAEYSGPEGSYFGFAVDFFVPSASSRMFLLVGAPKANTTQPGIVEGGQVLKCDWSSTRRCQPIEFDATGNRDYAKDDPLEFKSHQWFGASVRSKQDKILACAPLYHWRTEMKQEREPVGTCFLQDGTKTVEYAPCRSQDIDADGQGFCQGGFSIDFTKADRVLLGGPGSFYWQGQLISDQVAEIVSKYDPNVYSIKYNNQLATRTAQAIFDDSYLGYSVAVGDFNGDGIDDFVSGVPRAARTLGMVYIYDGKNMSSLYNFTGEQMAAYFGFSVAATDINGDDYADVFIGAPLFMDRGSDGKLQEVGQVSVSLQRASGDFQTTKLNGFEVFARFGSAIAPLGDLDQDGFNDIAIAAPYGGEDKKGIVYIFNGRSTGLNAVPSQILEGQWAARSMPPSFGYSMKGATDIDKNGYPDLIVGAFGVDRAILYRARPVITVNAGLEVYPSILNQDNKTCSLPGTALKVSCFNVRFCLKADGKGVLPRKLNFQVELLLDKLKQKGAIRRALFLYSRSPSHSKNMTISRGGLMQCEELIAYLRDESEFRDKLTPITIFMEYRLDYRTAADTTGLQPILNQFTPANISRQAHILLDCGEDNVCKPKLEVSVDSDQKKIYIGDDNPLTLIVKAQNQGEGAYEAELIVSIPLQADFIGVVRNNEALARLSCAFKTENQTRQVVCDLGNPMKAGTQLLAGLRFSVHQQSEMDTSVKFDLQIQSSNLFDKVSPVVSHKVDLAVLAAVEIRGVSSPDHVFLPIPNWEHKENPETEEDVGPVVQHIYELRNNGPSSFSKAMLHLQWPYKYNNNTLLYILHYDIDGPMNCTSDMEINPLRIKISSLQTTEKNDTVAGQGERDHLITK
Sequence of αVβ3 (P06756 891-1048 partner limits assumed): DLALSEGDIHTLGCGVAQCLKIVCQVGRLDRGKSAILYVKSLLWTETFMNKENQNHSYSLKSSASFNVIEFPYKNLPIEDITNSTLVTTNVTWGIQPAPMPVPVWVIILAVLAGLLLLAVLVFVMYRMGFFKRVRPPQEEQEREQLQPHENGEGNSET
Sequence of αVβ3 (P05106 27-788): as the sequence (P05106 27-788) above

[7] = test system: platelets of mice expressing hαIIb/mβ3; experiment: ADP-induced platelet aggregation after dosing of hαIIb/mβ3 mice; format: in vivo
[8] = Plasma concentrations in hαIIb/mβ3 mice; format: in vivo; settings: exception of an outlier value
[9] = Solubility in aqueous buffer; format: physicochemical
murine αIIbβ3 [10] = molecular target: T3, murine αIIbβ3; experiment: Reactivity with murine platelets / inhibition of murine αIIbβ3; format: cell-based
αIIbβ3 [11] = molecular target: T2, αIIbβ3; settings: cited from earlier work
αIIbβ3 [12] = molecular target: T2, αIIbβ3; experiment: Binding of ligand-induced binding site mAb AP5 to washed platelets; format: cell-based; settings: for induction of increased binding of mAb AP5 (LIBS epitope in β3 PSI domain): eptifibatide 10 µM, RUC-2 100 µM, RUC-4 100 µM
[13] = test system: ADP (20 µM)-induced platelet aggregation; experiment: ADP-induced platelet aggregation after IM administration to M. fascicularis; format: in vivo
human platelets = format: in vivo, mice; settings: RUC-4 IV 1.5 mg/kg; laser injury, cremasteric arterioles; intravital microscopy
[14] = cited from earlier work
hαIIb/mβ3 platelets = settings: read-out: IC50 for hαIIb/mβ3 platelets; data not shown, n=3
[15] = Clinical evaluation and platelet counts in M. fascicularis
[16] = RUC-2 0.39 mg/kg IP, 20 µM ADP, hαIIb/mβ3 mice
[17] = IM 1.9 and 3.85 mg/kg, non-human primates
[18] = RUC-4 1.2 mg/kg IM, 20 µM ADP, hαIIb/mβ3 mice

T1 sequence (P08514 32-887 limits assumed): as the sequence (P08514 32-887 limits assumed) above
T1 sequence (P08514 891-1039 partner limits assumed): as the sequence (P08514 891-1039 partner limits assumed) above
T1 sequence (P05106 27-788): as the sequence (P05106 27-788) above

Molecule: CCCCS(=O)(=O)N[C@@H](Cc1ccc(OCCCCC2CCNCC2)cc1)C(=O)O [tirofiban, reference compound]
- priming of the receptor to bind the ligand fibrinogen (platelet αIIbβ3 [1]): unlike eptifibatide and tirofiban, neither RUC-1 nor RUC-2 primed the receptor

Molecule: NCC(=O)Nc1cccc(-c2nn3c(=O)cc(N4CCNCC4)nc3s2)c1 [RUC-2]
- IC50 [2]: 95 ± 20 nM
- Ability to prime αIIbβ3 to bind fibrinogen (platelet αIIbβ3 [3]): No
- inhibition of binding of cells expressing αIIbβ3 to fibrinogen (αIIbβ3 [4]): inhibiting the binding of cells expressing αIIbβ3 to fibrinogen
- Specificity for αIIbβ3 vs αVβ3 (αIIbβ3 [4]): Yes
- mice protected from vaso-occlusion (hαIIb/mβ3 mice; RUC-2 3.85 mg/kg IP, 20% FeCl3 for 3 minutes, 20 minutes after dosing): 8/8
- platelet counts (hαIIb/mβ3 mice; RUC-2 3.85 mg/kg IP): 677±132 × 10^3 platelets per µl
- IC50 [5]: ~90 nM
- fold more potent than RUC-1 [5]: ~ 100 fold
- inhibition of murine αIIbβ3 (murine αIIbβ3 [6]): does not inhibit
- inhibition of binding of cells expressing αVβ3 to vitronectin (αVβ3): inability to inhibit
- time at which return of the aggregation response begins [7, 16]: 45 min
- time to complete inhibition of platelet aggregation [7, 16]: ≤ 15 min
- time to complete inhibition of platelet aggregation ([7]; RUC-2 3.85 mg/kg IP, 20 µM ADP, hαIIb/mβ3 mice): ≤ 15 min
- platelet aggregation at the 45 minute time point ([7]; RUC-2 3.85 mg/kg IP): complete inhibition of platelet aggregation in all animals
- time to maximum plasma concentration ([8]; RUC-2 IP): 15 min
- Solubility in aqueous buffer at pH 7.4 [9]: 0.068–0.092 mg/ml
- priming of the receptor to bind the ligand fibrinogen (platelet αIIbβ3 [1]): neither RUC-1 nor RUC-2 primed the receptor
- Reactivity with murine platelets (murine αIIbβ3 [10]): No
- conformational changes in β3 detectable by a conformation-specific monoclonal antibody or by electron microscopy (αIIbβ3 [11]): nor did they induce conformational changes in β3
- Ability to Induce conformational changes in αIIbβ3 identifiable by LIBS mAb (αIIbβ3 [12]): No
- induction of increased binding of mAb AP5 (LIBS epitope in β3 PSI domain) (αIIbβ3 [12]): did not induce increased binding

Molecule: CCc1nn2c(=O)cc(N3CCNCC3)nc2s1 [RUC-1]
- IC50 [5]: 13000 nM
- priming of the receptor to bind the ligand fibrinogen (platelet αIIbβ3 [1]): neither RUC-1 nor RUC-2 primed the receptor
- conformational changes in β3 detectable by a conformation-specific monoclonal antibody or by electron microscopy (αIIbβ3 [11]): nor did they induce conformational changes in β3

Molecule: eptifibatide [reference compound]
- fold higher affinity for αIIbβ3 than RUC-4 as judged by IC50 for platelet aggregation [5]: more than 4 fold
- priming of the receptor to bind the ligand fibrinogen (platelet αIIbβ3 [1]): unlike eptifibatide and tirofiban, neither RUC-1 nor RUC-2 primed the receptor

Molecule: NCC(=O)Nc1cncc(-c2nn3c(=O)cc(N4CCNCC4)nc3s2)c1 [RUC-4]
- IC50 [2]: 57 ± 10 nM
- Ability to prime αIIbβ3 to bind fibrinogen (platelet αIIbβ3 [3]): No
- time at which return toward normal aggregation is evident ([13]; 1.0 mg/kg IM, 20 µM ADP): 2 h
- inhibition of aggregation at 15 minutes ([13]; 1.0 mg/kg IM, 15 minutes): partial
- time at which aggregation response began to return to normal ([13]; 1.93 mg/kg IM, 20 µM ADP): ≤ 4.5 h
- time to complete inhibition of aggregation ([13]; 1.93 mg/kg IM, 20 µM ADP): ≤ 15 min
- time to complete inhibition of aggregation ([13]; 3.86 mg/kg IM, 20 µM ADP): ≤ 15 min
- dose-dependent return of platelet aggregation after [13, 17]: 4.5 to 24 h
- time to complete inhibition of platelet aggregation [13, 17]: ≤ 15 min
- inhibition of binding of cells expressing αIIbβ3 to fibrinogen (αIIbβ3 [4]): inhibiting the binding of cells expressing αIIbβ3 to fibrinogen
- Specificity for αIIbβ3 vs αVβ3 (αIIbβ3 [4]): Yes
- mice developing occlusion during the experiment (hαIIb/mβ3 mice; RUC-4 1.2 mg/kg IM, 20% FeCl3 for 3 minutes, 20 minutes after dosing): 2/11
- platelet counts (hαIIb/mβ3 mice; RUC-4 1.2 mg/kg IM): 674±176 × 10^3 platelets per µl
- inhibition of binding of cells expressing αVβ3 to vitronectin (αVβ3): inability to inhibit
- time of complete inhibition of platelet aggregation [7, 18]: 5 min
- time of partial return of aggregation [7, 18]: 4 h
- platelet aggregation at the 45 minute time point ([7]; RUC-4 1.2 mg/kg IM): complete inhibition of platelet aggregation in all animals
- time to maximum plasma concentration ([8]; RUC-4 IM): 5 min
- decrease in thrombus formation (human platelets): > 80%
- fold more soluble than RUC-2 in aqueous buffer at neutral pH ([9]; neutral pH): more than 500 fold
- Solubility in aqueous buffer at pH 7.4 [9]: 60–80 mg/ml
- Reactivity with murine platelets (murine αIIbβ3 [10]): No
- inhibition of murine αIIbβ3 (murine αIIbβ3 [10]; data not shown): shares this property
- fold more soluble than RUC-2 [14]: more than 500 fold
- IC50 (hαIIb/mβ3 platelets): ~10 nM
- Ability to Induce conformational changes in αIIbβ3 identifiable by LIBS mAb (αIIbβ3 [12]): No
- induction of increased binding of mAb AP5 (LIBS epitope in β3 PSI domain) (αIIbβ3 [12]): did not induce increased binding
- bleeding observation ([15]; 3.85 mg/kg IM): Transient gum bleeding
- clinical evaluation (tolerability) ([15]; IM 3.86, 1.93 and 1.0 mg/kg): well tolerated
- platelet counts throughout the 24 hour period ([15]; IM 3.86, 1.93 and 1.0 mg/kg, 24 hour): remained stable
